Measurements taken from patent US20230193262A1, “Nucleic acid molecules capable of modulating target gene expression and uses thereof” (KOREA ADVANCED INSTITUTE OF SCIENCE AND TECHNOLOGY, priority 2021, published 2023).
{Cy5.5} = Cy5.5 fluorophore label

Tests used:
Format in all cases: cell-based
[1] = system: breast cancer cell line MDA-MB-231; assay: Cell viability / apoptosis in MDA-MB-231
Description: (§1) The miRNA triggers were assayed for cytotoxicity and apoptosis induction, using the CCK-8 (Cell Counting Kit-8) (Dojindo, Kumamoto, Japan) according to the manufacturer's instruction. Cells were incubated in 96-well plates (5×10^3 cells/well) at 37° C. for 24 hours under a 5% CO2 atmosphere, followed by transfection. Three days after transfection, the medium was removed. A 10-fold dilution of CCK-8 solution in DMEM was added to the cells which were then incubated at 37° C. for 2 hours. After incubation, absorbance was read at 450 nm on Tecan Infinite M200 pro microplate reader (Mnnedorf, Switzerland).
The seven linear miRNA triggers prepared above and the positive control siRNA(siBcl-xL) capable of binding to bcL-xL were transfected into the breast cancer cell line MDA-MB-231 in which miR-222 is overexpressed. Cell viability was measured and is depicted in FIG. 32a.
Linear miRNA triggers that could bind to miR-222 and target bcl-xL and mcl-1, respectively, were prepared and transfected alone or in combination into the breast cancer cell line MDA-MB-231. Cell viability was measured and the measurements are depicted in FIG. 34. siRNAs against Mcl-1 and Bcl-xL were used as controls. […]
The hairpin miRNA triggers prepared above were transfected into MDA-MB-231 and MDA-MB-453 cells which were then measured for cell viability. […]

[2] = system: breast cancer cell line MDA-MB-453; assay: Cell viability / apoptosis in MDA-MB-453; conditions: for apoptosis: MDA-MB-453; for cell viability: MDA-MB-453 (does not express miR-222)
Description: as §1
(§2) The selected linear miRNA triggers (bcl-xL(1)_22_2222 and bcl-xL(2)_222_222) were transfected into the breast cancer cell line MDA-MB-453 to which miR-222 is not endogenous. Cell viability, and the mRNA and protein expression levels of the target gene (bcl-xL) were measured and the results are depicted in FIGS. 33a to 33c.
The hairpin miRNA triggers prepared above were transfected into MDA-MB-231 and MDA-MB-453 cells which were then measured for cell viability. The results are depicted in FIG. 37.
The MCL-1-222-222 miRNA trigger, which utilizes miR-222 to regulate MCL-1 gene, and the BCL-xL-let7f-let7f miRNA trigger, which utilizes miR-let7f to regulate BCL-xL gene, were administered to MDA-MB-231 and MDA-MB-453.
Next, apoptosis was examined when the two types of miRNA triggers were co-administered to cells. The total concentration of the two triggers was 120 nM, which was the same as for individual miRNAs. The results are depicted in FIG. 47.

[3] = system: Bcl-xL; assay: Western blot of Bcl-xL protein; conditions: MDA-MB-453
Description: (§3) miRNA triggers were transfected into cells in the same manner as in Reference Example 4. After 72 hours, the cells were collected using a cell scraper and lysed with a RIPA buffer (NaCl 150 mM, EDTA 5 mM, Tris 50 mM, NP-40 1.0%, sodium deoxycholate 0.5%, SDS 0.1%). The cell lysate was sonicated 15 times, each for 20 sec, with a halt for 30 sec every sonication. Following centrifugation at 5,000 g for 5 min, the supernatant was taken and used to extract proteins therefrom. A total of 30-40 μg of protein sample was separated in 10-15% SDS-PAGE gel and transferred onto a PVDF membrane through a semi-dry blotting system. The membrane was blocked for 1 hour in 5% skimmed milk and incubated for 2 hours with a 1,000-fold dilution of a primary antibody in, 1% skimmed milk. […] The membrane incubated with the secondary antibody was washed three times with 1×PBST for 10 min each wash, and then reacted with Clarity Western ECL Substrate (#1705061, Bio-Rad), after which images were obtained and analyzed using ChemiDoc (Bio-rad, Hercules, USA).
The cells transfected with the selected miRNA triggers were measured for protein expression levels of the target Bcl-xL and the apoptotic marker cleaved PARP through western blotting, and the results are depicted in FIG. 32b. […]

[4] = system: BCL-xL mRNA; assay: bcl-xL mRNA expression / gene regulation efficiency; conditions: MDA-MB-453
Description: In the same manner as in Reference Example 4, miRNA triggers were transfected into cells. After 48 hours, total RNA was extracted using TRIzol (Thermo Fisher Scientific) according to the manufacturer's instruction. The purified RNA was treated with DNase I and then reverse transcribed in the presence of RevertAid reverse transcriptase (Thermo Fisher Scientific), with random hexamers (Thermo Fisher Scientific) serving as primers. For use in amplification of target genes, primers for target genes were added, together with the cDNA, to the SYBR Green PCR master mix (Thermo Fisher Scientific). RT-qPCR was conducted on a StepOnePlus real-time PCR system. Cq values obtained from this analysis was quantitatively analyzed based on the 2^−ΔΔC(t) method.
as §2
After treatment with miRNA triggers, mRNA expression levels of the target gene BCL-xL were measured. […]

[5] = system: Hela-200c cells; assay: Cell viability / apoptosis (CCK-8) in Hela-200c cells
Description: as §1
(§4) The linear miRNA triggers or siRNAs (siLuc and siMcl-1) prepared above were transfected into Hela, Hela-141, and Hela-200c cells which were then measured for cell viability. The results are depicted in FIG. 15.

[6] = system: Hela-141 cells; assay: Cell viability / apoptosis (CCK-8) in Hela-141 cells; conditions: Hela-141 cells (express miR-141)
Description: as §1, §4
The hairpin miRNA triggers prepared above were transfected into Hela and Hela-141 cells which were then assayed for apoptosis. As a control, the siRNA (siMcl-1; Table 14) which can repress the expression of mcl-1 was transfected to Hela and Hela-141 cells and measured for apoptotic activity.

[7] = system: Mcl-1; assay: Western blot of Mcl-1 protein in Hela-141 cells; conditions: 5 to 120 nM, compared to the control Luc-141-141
Description: as §3
A linear miRNA trigger (Mcl-1-141-141; Table 15) that could bind to miR-141 and target mcl-1 was prepared while a linear miRNA trigger (Luc-141-141; Table 9) that could bind to miR-141 and target Luc (luciferase) was used as a control. […] Then, proteins were extracted from the Hela-141 cells and quantitatively analyzed for Mcl-1 protein level by western blotting. […]

[8] = system: MOLM-14, MV4-11 and Hela cells; assay: Fluorescence (IVIS 100) of cells transfected with Cy5.5-labeled trigger; conditions: Lipofectamine
Description: With the aid of Lipofectamine, the linear miRNA trigger (5′-Cy5.5-miR-155-miR-155-PKR-3′) was transfected into the FLT3-ITD mutant AML cell lines MOLM-14 and MV4-11 and the solid cancer cell line Hela. […] Subsequent animal tests were performed with the trigger.

Molecule: MCL-1-let7f-let7f: linear miRNA trigger designed to knock down MCL-1 by using miR-let7f; SEQ ID NO 113 (AACUAUACAAUGAACUACCUCAAACUAUACAAUGAACUACCUCACCGAACUACGUAGC; all 2'-O-methyl, backbone not given here)
- apoptosis ([1]; Examples 12-13): none of the two cell lines were induced to undergo apoptosis
- apoptosis ([2]; Example 13): none of the two cell lines were induced to undergo apoptosis

Molecule: bcl-xL(2)_222_222: linear miRNA trigger binding miR-222 and knocking down bcl-xL; SEQ ID NO 107 (ACCCAGUAGCCAGAUGUAGCUACCCAGUAGCCAGAUGUAGCUUACCUGCCAGCCUCCUU; all 2'-O-methyl, backbone not given here)
- cell viability [2]: did not significantly change
- protein expression level of target bcl-xL [3]: did not significantly change
- mRNA expression level of target bcl-xL [4]: did not significantly change

Molecule: MCL-1-222-222: linear miRNA trigger which utilizes miR-222 to regulate MCL-1 gene; SEQ ID NO 109 (ACCCAGUAGCCAGAUGUAGCUACCCAGUAGCCAGAUGUAGCUCCGAACUACGUAGC; all 2'-O-methyl, backbone not given here)
- apoptosis ([1]; 120 nM (total)): no apoptosis was observed
- apoptosis ([2]; 120 nM (total)): did not induce apoptosis

Molecule: Mcl-1-141-141: linear miRNA trigger binding miR-141 and targeting mcl-1; SEQ ID NO 65 (Table 25: 110) (CCAUCUUUACCUCACAGUGUUACCAUCUUUACCUCACAGUGUUACCGAACUACGUAGC; all 2'-O-methyl, backbone not given here)
- apoptosis / cell viability [5]: no significant influence on cell viability
- apoptosis induced [6]: up to 40%
- Mcl-1 protein level [7]: significantly decreased in Mcl-1 protein level

B1: 5′-Cy5.5-miR-155-miR-155-PKR-3′: linear miRNA trigger binding miR-155, targeting PKR, labeled with Cy5.5 fluorophore; SEQ ID NO 69 (conjugate)
chain: UUAUGUUUCAGGUUCAGGGGGAUUAUGUUUCCAGGUUCAGGGGGAUAUGUGAGGCAGAGAACGA
modifications: all 2'-O-methyl, 5' {Cy5.5}, backbone not given here
- Cy5.5 fluorescence of transfected cells [8]: Fluorescence was detected

B2: bcl-xL(1)_222_222: linear miRNA trigger binding miR-222 and knocking down bcl-xL; SEQ ID NO 106 (nucleic acid)
chain: ACCCAGUAGCCAGAUGUAGCUACCCAGUAGCCAGAUGUAGCUUCUCCUUCCUGCCCUUCCU
modifications: all 2'-O-methyl, backbone not given here
- cell viability [2]: did not significantly change
- protein expression level of target bcl-xL [3]: did not significantly change
- mRNA expression level of target bcl-xL [4]: did not significantly change
